In patent US11639940B2, “Method for determining sensitivity of cyclin-dependent kinase 4/6 inhibitor” (SYSMEX CORPORATION, priority 2019, dated 2023):
pIC50: −log10 of the molar value. Where two headings read alike, the source gives them in different places.

Key:
CDK2 [1] = assay: CDK activity (phosphorylated substrate peptide, HISCL ELISA) in lysate of treated breast cancer cell lines; type: cell-based; set-up: CDK2 Activity: unit not given here; settings: 48 h; for CDK2 Specific activity: activity/expression level
Protocol: After 48 hours, cells were recovered. […] Specifically, it was performed as follows. […] The composition of the substrate solution was as follows. […] The measurement was performed by Automated Immunoassay System […] Corporation). This measurement is based on ELISA on magnetic particles.

CDK6 = assay: expression level by Western blot in lysate of treated breast cancer cell lines; type: cell-based; settings: 48 h
Protocol: (§1) After 48 hours, cells were recovered.
(§2) To quantitatively analyze the expression levels, recombinant CDK proteins (rCDK2, rCDK4 and rCDK6) were electrophoresed at 5.0 ng, 2.5 ng, 1.0 ng, 0.75 ng, 0.5 ng and 0.2 ng as standard proteins.

CDK2 [2] = assay: as above; type: cell-based; settings: 48 h
Protocol: as §1, §2

CAMA-1 = assay: cytotoxicity test using WST-8 (number of viable cells); type: cell-based; settings: Homo sapiens, CAMA-1, 48 hours
Protocol: (§3) Six types of breast cancer cell lines, T47D, MCF7, HCC1500, CAMA-1, DU4475 and MDA-MB-231, were used. T47D, MCF7, HCC1500 and CAMA-1 are HER2-negative/ER-positive breast cancer cell lines, and DU4475 and MDA-MB-231 are cell lines derived from triple negative breast cancer (TNBC). […] In the analysis, the survival rate of the untreated cell line was set to 100%. The IC50 value was calculated from the normalized data by performing curve fitting using KaleidaGraph 4.0.

DU4475 = assay: as above; type: cell-based; settings: Homo sapiens, DU-4475, 48 h, DU4475, 48 hours
From the text: as §3, with “100%.” for “100%. The IC50 value was calculated from the normalized data by performing curve fitting using KaleidaGraph 4.0.”

MDA-MB-231 = assay: as above; type: cell-based; settings: Homo sapiens, MDA-MB-231, 48 hours
From the text: as §3, with “100%.” for “100%. The IC50 value was calculated from the normalized data by performing curve fitting using KaleidaGraph 4.0.”

MCF7 = assay: as above; type: cell-based; settings: Homo sapiens, MCF7, 48 hours
From the text: as §3, with “100%.” for “100%. The IC50 value was calculated from the normalized data by performing curve fitting using KaleidaGraph 4.0.”

HCC1500 = assay: as above; type: cell-based; settings: HCC1500, 48 hours
From the text: as §3, with “100%.” for “100%. The IC50 value was calculated from the normalized data by performing curve fitting using KaleidaGraph 4.0.”

T47D = assay: as above; type: cell-based; settings: Homo sapiens, 48 hours
From the text: as §3, with “100%.” for “100%. The IC50 value was calculated from the normalized data by performing curve fitting using KaleidaGraph 4.0.”

breast cancer cell lines = assay: cytotoxicity test using WST-8, summary over the cell lines; type: cell-based
From the text: as §3, with “100%.” for “100%. The IC50 value was calculated from the normalized data by performing curve fitting using KaleidaGraph 4.0.”

CDK4 = settings: 48 h
Protocol: After 48 hours, cells were recovered. A cell solubilization buffer was added to a cell pellet to be 5×10^7 cells/mL to lyse the cells, and the supernatant was recovered by centrifugation to obtain a cell lysate (hereinafter also referred to as a “lysate sample”).
The expression levels of CDK2, CDK4 and CDK6 were measured by Western blot as follows. Samples for electrophoresis (1 mg/mL lysate sample, 2×sample buffer and 10% 2-mercaptoethanol) were prepared from each lysate sample obtained in the above (2). Each of samples for electrophoresis (10 μL/lane) was electrophoresed on a polyacrylamide gel. To quantitatively analyze the expression levels, recombinant CDK proteins (rCDK2, rCDK4 and rCDK6) were electrophoresed at 5.0 ng, 2.5 ng, 1.0 ng, 0.75 ng, 0.5 ng and 0.2 ng as standard proteins. The gel after electrophoresis was transferred to a membrane by a conventional method, and a primary reaction was performed using an anti-CDK2 antibody, an anti-CDK4 antibody, and an anti-CDK6 antibody. Then, a secondary reaction was performed using an HRP-labeled antibody, and further reacted with SuperSignal West Femto Substrate (Thermo Fisher), and a chemiluminescent signal was detected with an X-ray film. The blot was quantitatively analyzed by Image Lab 5.2.1 (Bio Rad) to calculate the expression levels (nmol/L) of CDK2, CDK4 and CDK6 in each lysate sample.

SMILES: CC(=O)c1c(C)c2cnc(Nc3ccc(N4CCNCC4)cn3)nc2n(C2CCCC2)c1=O [palbociclib]
- CDK2 Activity (CDK2 [1]; CAMA-1, palbociclib 426 nM): 0.7
- CDK2 Specific activity (CDK2 [1]; CAMA-1, palbociclib 426 nM): 0.25
- CDK2 Activity (CDK2 [1]; DU4475, palbociclib 426 nM): 14.5
- CDK2 Specific activity (CDK2 [1]; DU4475, palbociclib 426 nM): 1.17
- CDK2 Activity (CDK2 [1]; HCC1500, palbociclib 426 nM): 0.7
- CDK2 Specific activity (CDK2 [1]; HCC1500, palbociclib 426 nM): 0.25
- CDK2 Activity (CDK2 [1]; MCF7, palbociclib 426 nM): 1.6
- CDK2 Specific activity (CDK2 [1]; MCF7, palbociclib 426 nM): 0.53
- CDK2 Activity (CDK2 [1]; MDA-MB-231, palbociclib 426 nM): 0.7
- CDK2 Specific activity (CDK2 [1]; MDA-MB-231, palbociclib 426 nM): 0.24
- CDK2 Activity (CDK2 [1]; T47D, palbociclib 426 nM): 2.1
- CDK2 Specific activity (CDK2 [1]; T47D, palbociclib 426 nM): 0.36
- Expression level CDK6 (CDK6; CAMA-1, palbociclib 426 nM): 0.4 nmol/L
- Expression level CDK6 (CDK6; DU4475, palbociclib 426 nM): 60.9 nmol/L
- Expression level CDK6 (CDK6; HCC1500, palbociclib 426 nM): 0.4 nmol/L
- Expression level CDK6 (CDK6; MCF7, palbociclib 426 nM): 4.3 nmol/L
- Expression level CDK6 (CDK6; MDA-MB-231, palbociclib 426 nM): 20.1 nmol/L
- Expression level CDK2 (CDK2 [2]; CAMA-1, palbociclib 426 nM): 2.8 nmol/L
- Expression level CDK2 (CDK2 [2]; DU4475, palbociclib 426 nM): 12.3 nmol/L
- Expression level CDK2 (CDK2 [2]; HCC1500, palbociclib 426 nM): 2.9 nmol/L
- Expression level CDK2 (CDK2 [2]; MCF7, palbociclib 426 nM): 3.0 nmol/L
- Expression level CDK2 (CDK2 [2]; MDA-MB-231, palbociclib 426 nM): 3.0 nmol/L
- Expression level CDK2 (CDK2 [2]; T47D, palbociclib 426 nM): 5.7 nmol/L
- pIC50 (CAMA-1): 6.05
- pIC50 (DU4475): < 5.00
- pIC50 (MDA-MB-231): 6.32
- pIC50 (MCF7): 6.12
- pIC50 (HCC1500): 5.27
- pIC50 (T47D): 6.69
- pIC50 (breast cancer cell lines; average over the breast cancer cell lines, read-out: IC50 Average): 5.81
- pIC50 (breast cancer cell lines; median over the breast cancer cell lines, read-out: IC50 Median): 6.12
- Expression level CDK4 (CDK4; CAMA-1, palbociclib 426 nM): 18.9 nmol/L
- Expression level CDK4 (CDK4; DU4475, palbociclib 426 nM): 16.6 nmol/L
- Expression level CDK4 (CDK4; HCC1500, palbociclib 426 nM): 12.7 nmol/L
- Expression level CDK4 (CDK4; MCF7, palbociclib 426 nM): 39.4 nmol/L
- Expression level CDK4 (CDK4; MDA-MB-231, palbociclib 426 nM): 20.7 nmol/L
- Expression level CDK4 (CDK4; T47D, palbociclib 426 nM): 18.8 nmol/L
